In the Kinase Knowledgebase extract (Sharma et al. 2016):

molecular target: EGFR (human) (UniProt P00533)
Sequence (P00533 whole entry, looked up): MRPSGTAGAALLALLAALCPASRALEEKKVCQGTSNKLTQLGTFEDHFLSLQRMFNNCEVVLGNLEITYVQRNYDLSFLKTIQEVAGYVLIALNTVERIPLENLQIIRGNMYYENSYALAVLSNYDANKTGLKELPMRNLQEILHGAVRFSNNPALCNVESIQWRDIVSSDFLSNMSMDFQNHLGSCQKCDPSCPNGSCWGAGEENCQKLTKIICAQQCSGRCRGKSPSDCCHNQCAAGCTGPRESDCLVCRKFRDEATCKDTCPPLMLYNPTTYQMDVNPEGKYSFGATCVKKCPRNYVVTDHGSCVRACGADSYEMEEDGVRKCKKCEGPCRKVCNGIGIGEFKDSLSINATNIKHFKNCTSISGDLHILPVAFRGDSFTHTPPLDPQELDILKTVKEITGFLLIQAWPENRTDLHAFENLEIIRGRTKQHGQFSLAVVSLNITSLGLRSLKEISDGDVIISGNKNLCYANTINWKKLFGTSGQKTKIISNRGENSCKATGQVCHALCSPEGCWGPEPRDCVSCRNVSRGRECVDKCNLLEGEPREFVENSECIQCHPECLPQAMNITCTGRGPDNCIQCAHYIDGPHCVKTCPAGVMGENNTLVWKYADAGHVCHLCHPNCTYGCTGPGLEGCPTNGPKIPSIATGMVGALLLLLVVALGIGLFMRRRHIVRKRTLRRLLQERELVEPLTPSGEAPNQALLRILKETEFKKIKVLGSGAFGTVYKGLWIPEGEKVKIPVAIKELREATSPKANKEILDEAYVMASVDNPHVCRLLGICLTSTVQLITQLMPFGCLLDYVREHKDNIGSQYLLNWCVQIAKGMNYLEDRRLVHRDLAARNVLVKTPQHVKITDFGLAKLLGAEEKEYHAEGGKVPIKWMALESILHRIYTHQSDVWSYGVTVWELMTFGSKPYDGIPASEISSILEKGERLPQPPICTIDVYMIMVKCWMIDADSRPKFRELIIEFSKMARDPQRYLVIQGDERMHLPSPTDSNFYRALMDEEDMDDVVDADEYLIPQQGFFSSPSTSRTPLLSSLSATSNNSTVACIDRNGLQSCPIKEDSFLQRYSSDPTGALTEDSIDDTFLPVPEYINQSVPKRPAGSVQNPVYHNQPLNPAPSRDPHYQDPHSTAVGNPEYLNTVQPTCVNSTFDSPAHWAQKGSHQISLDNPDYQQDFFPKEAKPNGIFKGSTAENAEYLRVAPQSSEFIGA

IC50 [nM] | SMILES
< 1000 | COc1ccc(O)c(C=NNc2nc3nonc3nc2Nc2ccc(Cl)c(Cl)c2)c1
< 1000 | COc1ccc(C=NNc2nc3nonc3nc2Nc2ccc(Cl)c(Cl)c2)c(O)c1
< 1000 | COc1cccc(C=NNc2nc3nonc3nc2Nc2ccc(Cl)c(Cl)c2)c1O
< 1000 | Fc1ccc(Nc2nc3nonc3nc2NN=Cc2cc3ccccc3o2)cc1Cl
< 1000 | Oc1ccc(C=NNc2nc3nonc3nc2Nc2ccc(Cl)c(Cl)c2)c(O)c1
< 1000 | Oc1c(Br)cc(Br)cc1C=NNc1nc2nonc2nc1Nc1cccc(Cl)c1
< 1000 | Oc1c(Br)cc(Cl)cc1C=NNc1nc2nonc2nc1Nc1ccc(Cl)c(Cl)c1
< 1000 | Oc1c(Br)cc(Br)cc1C=NNc1nc2nonc2nc1Nc1ccc(F)c(Cl)c1
< 1000 | O=[N+]([O-])c1cccc(-c2ccc(C=NNc3nc4nonc4nc3Nc3cccc(Cl)c3)o2)c1
< 1000 | O=C(O)c1cccc(C=NNc2nc3nonc3nc2Nc2ccc(Cl)c(Cl)c2)c1
< 1000 | COc1cc(Br)cc(C=NNc2nc3nonc3nc2Nc2cccc(Cl)c2)c1O
< 1000 | O=C(O)c1cccc(C=NNc2nc3nonc3nc2Nc2ccc(F)c(Cl)c2)c1
< 1000 | O=C(O)c1cccc(-c2ccc(C=NNc3nc4nonc4nc3Nc3cccc(Cl)c3)o2)c1

Further lines, the compound ahead of its results:

SMILES | IC50 [nM]
Clc1ccc(Nc2nc3nonc3nc2NN=Cc2ccc(-c3ccccc3)o2)cc1Cl | < 1000
O=c1[nH]c2ccc(Nc3nc4nonc4nc3NN=Cc3cc(I)cc(I)c3OCc3ccc(Cl)cc3Cl)cc2[nH]1 | < 1000
NC(=O)c1cccc(-c2ccc(C=NNc3nc4nonc4nc3Nc3ccc(Cl)c(Cl)c3)o2)c1 | < 1000
O=C1Nc2ccccc2C1=NNc1nc2nonc2nc1Nc1ccc(F)c(Cl)c1 | < 1000
O=C(O)c1cc(-c2ccc(C=NNc3nc4nonc4nc3Nc3ccccc3F)o2)ccc1Cl | < 1000
O=C(O)c1ccc(-c2ccc(C=NNc3nc4nonc4nc3Nc3ccc(F)cc3)o2)cc1 | < 1000
Fc1ccc(Nc2nc3nonc3nc2NN=Cc2ccc(-c3ccc(Cl)cc3Cl)o2)cc1 | < 1000
NC(=O)c1cccc(-c2ccc(C=NNc3nc4nonc4nc3Nc3ccc(F)c(Cl)c3)o2)c1 | < 1000
COc1cc(C=NNc2nc3nonc3nc2Nc2ccccc2F)cc([N+](=O)[O-])c1O | < 1000
Clc1ccc(Nc2nc3nonc3nc2NN=Cc2cc3ccccc3o2)cc1Cl | < 1000
O=C(O)c1ccc(-c2ccc(C=NNc3nc4nonc4nc3Nc3ccc(Cl)c(Cl)c3)o2)cc1 | < 1000
O=C(O)c1cc(-c2ccc(C=NNc3nc4nonc4nc3Nc3ccc(F)cc3)o2)ccc1Cl | < 1000
Cc1cccc(Nc2nc3nonc3nc2NN=Cc2ccc(-c3ccc(Cl)c(C(=O)O)c3)o2)c1C | < 1000
O=C(O)c1ccc(C=NNc2nc3nonc3nc2Nc2ccc(F)c(Cl)c2)cc1 | < 1000
O=C(O)c1cc(-c2ccc(C=NNc3nc4nonc4nc3Nc3ccc(Br)cc3)o2)ccc1Cl | < 1000
Cc1cccc(Nc2nc3nonc3nc2NN=Cc2ccc(-c3cccc(C(=O)O)c3)o2)c1 | < 1000
Fc1ccc(Nc2nc3nonc3nc2NN=Cc2ccc(-c3ccc(Cl)cc3)o2)cc1Cl | < 1000
Clc1ccc(-c2ccc(C=NNc3nc4nonc4nc3Nc3ccc(Cl)c(Cl)c3)o2)cc1 | < 1000
O=C(O)c1cc(-c2ccc(C=NNc3nc4nonc4nc3Nc3ccc(F)c(Cl)c3)o2)ccc1Cl | < 1000
Fc1ccc(Nc2nc3nonc3nc2NN=Cc2ccc(-c3ccccc3)o2)cc1Cl | < 1000
O=C(O)c1cc(-c2ccc(C=NNc3nc4nonc4nc3Nc3ccccc3F)o2)ccc1O | < 1000
O=C(O)c1cc(-c2ccc(C=NNc3nc4nonc4nc3Nc3ccc(Cl)c(Cl)c3)o2)ccc1Cl | < 1000
CCOC(=O)c1ccccc1C=NNc1nc2nonc2nc1Nc1ccc(Cl)c(Cl)c1 | < 1000
O=C(O)c1cccc(-c2ccc(C=NNc3nc4nonc4nc3Nc3ccc(Cl)c(Cl)c3)o2)c1 | < 1000
O=[N+]([O-])c1cccc(-c2ccc(C=NNc3nc4nonc4nc3Nc3ccc(F)cc3)o2)c1 | < 1000
O=C1Nc2ccccc2C1=NNc1nc2nonc2nc1Nc1ccc(Cl)c(Cl)c1 | < 1000
Clc1ccc(Nc2nc3nonc3nc2NN=Cc2ccco2)cc1Cl | < 1000
O=C(O)c1ccc(-c2ccc(C=NNc3nc4nonc4nc3Nc3ccc(F)c(Cl)c3)o2)cc1 | < 1000
